In brackets after ≈: the same amount, converted by molar mass.
How the values were obtained:
Aleochara bilineata = conditions: chronic/long-term; duration: 77 days; reproduction
Coturnix japonica = conditions: acute; oral; diet; mortality
Folsomia candida = conditions: chronic/long-term; duration: 28 days; mortality
Landoltia sp. = conditions: chronic/long-term; duration: 14 days; other
Lepomis macrochirus = conditions: acute; duration: 96 hours; mortality
Pleurozium sp. = conditions: acute; duration: 72 hours
Rattus norvegicus = conditions: for LD50: acute, mortality
Tagia sp. = conditions: acute; duration: 14 days; mortality
Canidae = conditions: subchronic; duration: 90 days; oral; gavage; Dog Other; body weight
Mus musculus = conditions: acute, oral, mortality

## CN1CSC(=S)N(C)C1 [Dazomet]
Aleochara bilineata
  LEL: 485000 g/ha
Anas platyrhynchos; reproductive
  NOEL: 16.7 mg/kg-day
Anas platyrhynchos; short-term, oral, feed, mortality
  LC50: > 341 mg/kg-day
Colinus virginianus; acute, oral, diet, mortality
  LC50: 197 mg/kg-day
Colinus virginianus; acute, oral, mortality
  LD50: > 415 mg/kg-day
Colinus virginianus; reproduction developmental
  NOEL: 10.6 mg/kg-day
Coturnix japonica
  LC50: > 1220 mg/kg-day
Folsomia candida
  LEL: 485000 g/ha
Landoltia sp.
  NOEC: 0.306 mg/L
Lepomis macrochirus
  LC50: 0.3 µg/mL (≈ 1.85 µM)
Pleurozium sp.
  NOEC: 0.056 mg/L
Rattus norvegicus; oral, F
  LD50: 415 mg/kg-day
Rattus norvegicus; oral, M
  LD50: 596 mg/kg-day
Rattus norvegicus; chronic, duration: 2 years, oral, diet, hematological
  NOAEL: 0.9 mg/kg-day
Rattus norvegicus; developmental, development
  NOAEL: 3 mg/kg-day
Rattus norvegicus; reproduction developmental, reproduction
  NOAEL: 18 mg/kg-day
Rattus norvegicus; subchronic, duration: 90 days, oral, diet, organ weight
  NOAEL: 1.5 mg/kg-day
Tagia sp.
  LC50: 6.5 mg/kg

## CN=C=S [Methyl isothiocyanate]
Canidae
  NOAEL: 0.4 mg/kg-day
Mus musculus; F
  LD50: 100 mg/kg-day
Mus musculus; M
  LD50: 120 mg/kg-day
Rattus norvegicus; reproduction developmental, body weight
  NOAEL: 3 mg/kg-day

Reference: EPA's ToxValDB 9.5 (doi:10.2903/j.efsa.2010.1833)
